Reference: patent publication US5041445A, “3-[1-thiazolidinylbutyl-4-piperazinyl]-1H-indazoles” (Hoechst-Roussel Pharmaceuticals Incorporated, priority 1990, dated 1991)
Read-outs that look alike come from different tables or passages of the source.

Tested on: apomorphine climbing
Assay: Climbing Mouse Assay (CMA), antagonism of apomorphine-induced climbing
Assay type: in vivo, CK-1 male mice
Details: linear regression, read-out: Climbing Mice Assay ED50
Excerpt: The compounds of the present invention are potentially useful as antipsychotic agents as determined in the Climbing Mouse Assay (CMA).
The Climbing Mouse Assay is described by P. Protais, et al., Psychopharmacol., 50, 1 (1976) and B. Costall, Eur. J. Pharmacol., 50, 39 (1978).
The subject CK-1 male mice (23-27 grams) are group-housed under standard laboratory conditions. The mice are individually placed in wire mesh stick cages (4"×4" by 10") and are allowed one hour for adaptation and exploration of the new environment. The apomorphine is injected subcutaneously at 1.5 mg/kg, a dose causing climbing in all subjects for 30 minutes. Compounds to be tested for antipsychotic activity are injected intraperitoneally (i.p.) 30 minutes prior to the apomorphine challenge at a screening dose of 10 mg/kg.
For evaluation of climbing, 3 readings are taken at 10, 20 and 30 minutes after apomorphine administration according to the following scale: […]
______________________________________
4 paws on bottom (no climbing)
2 paws on the wall (rearing)
4 paws on the wall (full climb)
Mice consistently climbing before the injection of apomorphine are discarded.
With full-developed apomorphine climbing, the animals are hanging onto the cage walls, rather motionless, over longer periods of time. By contrast, climbs due to mere motion stimulation usually last only a few seconds.
The climbing scores are individually totaled (maximum score: 6 per mouse over 3 readings) and the total score of the control group (vehicle intraperitoneally; apomorphine subcutaneously) is set to 100%. ED50 values with 95% confidence limits, calculated by linear regression analyses of some of the compounds of this invention are presented in Table 1.

[1] = ip, 30 minutes prior to apomorphine 1.5 mg/kg s.c.

| SMILES | ED50 [1] | ED50 (po, apomorphine 1.5 mg/kg s.c.) |
| --- | --- | --- |
| O=C1N(CCCCN2CCN(c3n[nH]c4ccccc34)CC2)CSC12CCCCC2 [3-(4-(1-[1H-indazol-3-yl]-4-piperazinyl)butyl)-1-thia-3-azaspiro[4.5]decan-4-one] | 0.65 mg/kg |  |
| CN1CCN(C2=Nc3cc(Cl)ccc3Nc3ccccc32)CC1 [Clozapine, reference compound] | 8.1 mg/kg |  |
| CC1SCN(CCCCN2CCN(c3n[nH]c4cc(F)ccc34)CC2)C1=O (centres unmarked) [3-{4-[1-(6-Fluoro-1H-indazol-3-yl)-piperazinyl]butyl}-5-methyl-4-thiazolidinone] | 0.11 mg/kg |  |
| O=C1N(CCCCN2CCN(c3n[nH]c4cc(F)ccc34)CC2)CSC12CCCCC2 [3-{4-[1-(6-Fluoro-1H-indazol-3-yl)-4-piperazinyl]butyl}-1-thia-3-azaspiro[4.5]decan-4-one] | 0.04 mg/kg | 0.67 mg/kg |
| O=C1N(CCCCN2CCN(c3n[nH]c4ccccc34)CC2)CSC12CCCC2 [3-(4-(1-[1H-Indazol-3-yl]-4-piperazinyl)butyl)-1-thia-3-azaspiro[4.4]nonan-4-one] | 1.3 mg/kg | 2.7 mg/kg |
| CC1(C)SCN(CCCCN2CCN(c3n[nH]c4ccccc34)CC2)C1=O [3-(4-(1-[1H-Indazol-3-yl]-4-piperazinyl)-butyl)-5,5-dimethyl-4-thiazolidinone] | 1.3 mg/kg |  |
